Test results: ChEMBL document CHEMBL1811849, “Development of a plate-based scintillation proximity assay for the mycobacterial AftB enzyme involved in cell wall arabinan biosynthesis” (Bioorg Med Chem, 2010)
Activity calls are given as the source filed them. The rule behind the calls is not given here.

What was measured:
[1] = test system: Mycolicibacterium smegmatis; assay: Activity of AftB in Mycobacterium smegmatis membrane assessed as formation of biosynthetic products by TLC based assay; type: cell membranes
[2] = test system: Mycolicibacterium smegmatis; assay: Activity of AftB in Mycobacterium smegmatis membrane/p60 fraction assessed as incorporation of DP[3H]A to compound to generate biotinylated trisaccharide with beta-(1 to 2) Araf residue by SPA assay

Activity [1] | Km [2] | Structure (SMILES)
Active | – | C=CCCCO[C@H]1O[C@H](CO[C@H]2O[C@H](CO)[C@@H](O)[C@@H]2O)[C@@H](O)[C@@H]1O
– | 40.9 µM | O=C(CCCC[C@@H]1SC[C@@H]2NC(=O)N[C@@H]21)NCCSCCCCCO[C@H]1O[C@H](CO[C@H]2O[C@H](CO)[C@@H](O)[C@@H]2O)[C@@H](O)[C@@H]1O
Active | – | C=CCCCO[C@H]1O[C@H](CO[C@H]2O[C@H](CO[C@H]3O[C@H](CO)[C@@H](O)[C@@H]3O)[C@@H](O)[C@@H]2O)[C@@H](O)[C@@H]1O
Active | – | C=CCCCO[C@H]1O[C@H](CO[C@H]2O[C@H](CO[C@H]3O[C@H](CO[C@H]4O[C@H](CO)[C@@H](O)[C@@H]4O)[C@@H](O)[C@@H]3O)[C@@H](O)[C@@H]2O)[C@@H](O)[C@@H]1O
